Like-named read-outs stand apart in the source and are kept apart here.

Holding throughout (assay): cell-based
The target in assay [1] is T1, hNav1.7 (Homo sapiens, UniProt Q15858). Type of assay: cell-based. As to conditions: read-out: PX hNav1.7 Tonic IC50.
Another assay has as its target mNav1.7 (Mus musculus, UniProt Q62205). As to conditions: for IC50: PatchXpress, tonic block, mouse Nav1.7, read-out: PX mNav1.7 Tonic IC50; for mNav1.7/hNav1.7: ratio of PX tonic IC50, mouse Nav1.7 over human Nav1.7.
In the next assay the target is rNav1.7 (Rattus norvegicus, UniProt O08562). As to conditions: for IC50: PatchXpress, tonic block, rat Nav1.7, read-out: PX rNav1.7 Tonic IC50; for rNav1.7/hNav1.7: ratio of PX tonic IC50, rat Nav1.7 over human Nav1.7.
Sequence of rNav1.7 (O08562 whole entry): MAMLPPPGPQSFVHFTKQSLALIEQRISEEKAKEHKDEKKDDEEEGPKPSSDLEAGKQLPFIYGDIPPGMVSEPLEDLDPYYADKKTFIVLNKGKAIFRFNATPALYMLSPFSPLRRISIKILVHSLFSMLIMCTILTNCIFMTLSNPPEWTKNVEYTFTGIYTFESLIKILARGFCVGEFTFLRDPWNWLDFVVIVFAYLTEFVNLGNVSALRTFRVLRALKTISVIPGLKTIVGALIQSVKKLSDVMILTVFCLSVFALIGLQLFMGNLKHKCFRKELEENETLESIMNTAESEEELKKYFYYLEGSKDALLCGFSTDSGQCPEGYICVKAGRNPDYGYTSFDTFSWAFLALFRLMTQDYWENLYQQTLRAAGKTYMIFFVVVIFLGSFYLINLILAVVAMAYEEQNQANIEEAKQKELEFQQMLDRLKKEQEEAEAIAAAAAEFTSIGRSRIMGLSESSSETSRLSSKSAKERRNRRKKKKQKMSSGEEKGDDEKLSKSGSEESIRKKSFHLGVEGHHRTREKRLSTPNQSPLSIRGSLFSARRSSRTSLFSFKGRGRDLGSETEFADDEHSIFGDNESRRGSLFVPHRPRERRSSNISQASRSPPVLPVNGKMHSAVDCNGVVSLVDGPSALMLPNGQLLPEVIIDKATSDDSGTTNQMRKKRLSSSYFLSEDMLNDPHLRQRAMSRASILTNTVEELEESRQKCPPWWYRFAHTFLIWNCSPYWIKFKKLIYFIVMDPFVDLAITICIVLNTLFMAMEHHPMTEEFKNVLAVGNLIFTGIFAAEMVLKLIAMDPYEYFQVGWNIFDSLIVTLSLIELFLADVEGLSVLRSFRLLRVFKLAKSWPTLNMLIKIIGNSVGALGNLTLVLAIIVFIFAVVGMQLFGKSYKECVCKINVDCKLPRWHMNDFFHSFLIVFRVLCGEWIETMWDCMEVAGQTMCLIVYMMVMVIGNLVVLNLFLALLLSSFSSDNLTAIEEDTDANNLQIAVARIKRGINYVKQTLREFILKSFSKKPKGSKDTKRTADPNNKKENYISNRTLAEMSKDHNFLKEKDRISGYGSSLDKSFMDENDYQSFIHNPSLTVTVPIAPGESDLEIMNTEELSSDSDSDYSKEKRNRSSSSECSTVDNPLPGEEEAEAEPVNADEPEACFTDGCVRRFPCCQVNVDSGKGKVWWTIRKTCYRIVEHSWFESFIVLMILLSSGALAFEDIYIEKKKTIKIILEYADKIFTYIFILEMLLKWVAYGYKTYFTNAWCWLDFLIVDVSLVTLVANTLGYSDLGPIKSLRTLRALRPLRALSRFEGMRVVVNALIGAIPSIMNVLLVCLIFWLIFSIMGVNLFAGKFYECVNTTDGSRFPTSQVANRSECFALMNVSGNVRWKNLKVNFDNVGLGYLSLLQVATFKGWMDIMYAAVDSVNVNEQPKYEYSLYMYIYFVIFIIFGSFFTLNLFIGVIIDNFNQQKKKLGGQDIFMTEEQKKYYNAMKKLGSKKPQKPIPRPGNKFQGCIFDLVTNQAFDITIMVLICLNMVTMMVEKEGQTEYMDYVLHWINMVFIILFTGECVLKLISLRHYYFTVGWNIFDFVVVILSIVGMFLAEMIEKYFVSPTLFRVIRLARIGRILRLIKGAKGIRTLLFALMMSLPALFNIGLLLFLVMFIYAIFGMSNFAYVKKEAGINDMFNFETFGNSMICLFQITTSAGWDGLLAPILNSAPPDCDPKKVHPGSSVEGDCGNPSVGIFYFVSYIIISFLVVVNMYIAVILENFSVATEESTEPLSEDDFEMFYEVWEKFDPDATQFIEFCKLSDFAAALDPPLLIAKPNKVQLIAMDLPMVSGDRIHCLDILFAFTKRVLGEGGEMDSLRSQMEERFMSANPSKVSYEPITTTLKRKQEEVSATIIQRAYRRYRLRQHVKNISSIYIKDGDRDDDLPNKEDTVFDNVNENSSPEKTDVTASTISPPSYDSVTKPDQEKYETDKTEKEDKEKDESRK
The target of assay [2] is T2, hNav1.4 (Homo sapiens, UniProt P35499). In kind it is cell-based.
Assay [3] has as its target T3, hNav1.5 (Homo sapiens, UniProt Q14524). As to conditions: IonWorks Quattro; Table 9; read-out: IC50 (μM) Nav1.5. In general terms: In patch-clamp work, channel activity is measured electrically.
In assay [4] the target is T1, hNav1.7. As to conditions: IonWorks Quattro; […]; read-out: IC50 (μM) Nav1.7.
Assay [5] addresses T2, hNav1.4. In kind it is cell-based. As to conditions: Table 9.
Assay [6] concerns the target T3, hNav1.5.
The target in another assay is hNav1.3 (Homo sapiens, UniProt Q9NY46). As to conditions: IonWorks Quattro; Table 9; read-out: IC50 (μM) Nav1.3.
The mark [7] stands for this setting: PatchXpress, tonic block, human Nav1.7.
Setting [8] is: Table 13, ratio of PX tonic IC50 values.

T3 sequence (Q14524 whole entry): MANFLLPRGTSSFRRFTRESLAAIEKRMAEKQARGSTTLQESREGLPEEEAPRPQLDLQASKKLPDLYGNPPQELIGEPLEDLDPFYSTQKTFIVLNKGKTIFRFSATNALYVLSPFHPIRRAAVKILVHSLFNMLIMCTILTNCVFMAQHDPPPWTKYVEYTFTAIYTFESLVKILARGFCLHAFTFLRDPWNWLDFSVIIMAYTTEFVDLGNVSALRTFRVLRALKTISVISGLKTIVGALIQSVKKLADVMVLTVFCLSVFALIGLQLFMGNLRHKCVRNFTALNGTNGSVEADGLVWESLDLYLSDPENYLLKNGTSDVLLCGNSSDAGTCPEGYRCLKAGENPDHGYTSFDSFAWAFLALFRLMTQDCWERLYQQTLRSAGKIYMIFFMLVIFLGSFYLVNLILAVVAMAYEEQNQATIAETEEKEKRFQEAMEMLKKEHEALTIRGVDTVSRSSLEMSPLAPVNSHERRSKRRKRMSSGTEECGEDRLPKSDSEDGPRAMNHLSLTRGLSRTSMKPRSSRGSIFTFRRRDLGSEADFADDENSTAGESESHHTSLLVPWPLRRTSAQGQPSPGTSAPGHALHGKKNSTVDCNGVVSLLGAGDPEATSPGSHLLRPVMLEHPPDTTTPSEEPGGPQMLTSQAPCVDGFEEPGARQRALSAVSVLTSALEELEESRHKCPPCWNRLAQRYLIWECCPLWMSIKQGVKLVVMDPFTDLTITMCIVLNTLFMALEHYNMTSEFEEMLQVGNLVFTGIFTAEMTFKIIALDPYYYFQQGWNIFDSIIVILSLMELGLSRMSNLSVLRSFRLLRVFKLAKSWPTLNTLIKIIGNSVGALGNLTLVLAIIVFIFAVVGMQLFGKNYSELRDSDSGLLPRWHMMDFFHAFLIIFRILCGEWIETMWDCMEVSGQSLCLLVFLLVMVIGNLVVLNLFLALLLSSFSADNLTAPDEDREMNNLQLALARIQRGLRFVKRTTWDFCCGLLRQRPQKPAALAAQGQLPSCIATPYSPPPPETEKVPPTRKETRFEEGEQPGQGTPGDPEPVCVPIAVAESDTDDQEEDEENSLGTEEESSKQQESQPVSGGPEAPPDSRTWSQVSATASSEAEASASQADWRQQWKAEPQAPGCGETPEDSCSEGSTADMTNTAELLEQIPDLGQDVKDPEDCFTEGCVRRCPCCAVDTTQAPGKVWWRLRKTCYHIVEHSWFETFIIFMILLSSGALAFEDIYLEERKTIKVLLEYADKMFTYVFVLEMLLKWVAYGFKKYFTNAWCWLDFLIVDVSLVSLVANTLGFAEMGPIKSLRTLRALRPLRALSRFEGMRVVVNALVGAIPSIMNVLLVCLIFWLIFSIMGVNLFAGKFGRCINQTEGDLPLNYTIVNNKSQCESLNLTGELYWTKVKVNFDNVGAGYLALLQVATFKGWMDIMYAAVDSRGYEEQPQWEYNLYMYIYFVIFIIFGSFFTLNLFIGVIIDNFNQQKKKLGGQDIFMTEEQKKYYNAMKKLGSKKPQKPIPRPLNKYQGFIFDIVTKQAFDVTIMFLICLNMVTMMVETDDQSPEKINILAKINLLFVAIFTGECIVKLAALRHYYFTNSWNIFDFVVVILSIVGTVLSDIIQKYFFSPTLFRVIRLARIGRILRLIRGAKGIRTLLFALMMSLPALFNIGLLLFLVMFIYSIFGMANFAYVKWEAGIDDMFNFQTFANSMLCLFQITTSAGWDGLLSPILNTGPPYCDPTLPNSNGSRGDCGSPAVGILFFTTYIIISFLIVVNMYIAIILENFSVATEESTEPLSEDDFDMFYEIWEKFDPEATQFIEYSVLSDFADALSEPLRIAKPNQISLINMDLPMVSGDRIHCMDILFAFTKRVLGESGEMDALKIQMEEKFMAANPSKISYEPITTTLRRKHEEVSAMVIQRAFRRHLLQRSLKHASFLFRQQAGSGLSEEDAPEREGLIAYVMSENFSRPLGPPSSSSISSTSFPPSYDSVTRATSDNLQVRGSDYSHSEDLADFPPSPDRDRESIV

In general, IC50 refers to the concentration at which inhibition is half-maximal. For `CCCC[C@@H]1NC(=O)[C@H](Cc2c[nH]c3ccccc23)NC(=O)[C@H](CCCCN)NC(=O)[C@H](CCC(N)=O)NC(=O)[C@@H](NC(=O)[C@H](Cc2ccc(O)cc2)NC(=O)[C@@H](N)CC#N)CSSC[C@@H]2NC(=O)[C@@H]3CSSC[C@@H](C(=O)N[C@@H](CCCNC(=N)N)C(=O)N[C@@H](CCCCN)C(=O)N[C@H](C(=O)N[C@H](C(N)=O)[C@@H](C)CC)[C@@H](C)CC)NC(=O)[C@H](Cc4c[nH]c5ccccc45)NC(=O)[C@H](CC(C)C)NC(=O)[C@H](CCCCN)NC(=O)[C@H](CSSC[C@H](NC(=O)[C@H]([C@@H](C)O)NC(=O)[C@H](Cc4c[nH]c5ccccc45)NC1=O)C(=O)N[C@@H](CC(=O)O)C(=O)N[C@@H](CO)C(=O)N[C@@H](CCCCN)C(=O)N[C@@H](CCCNC(=N)N)C(=O)N[C@@H](C)C(=O)N3)NC(=O)[C@H](CCCNC(=N)N)NC(=O)[C@H](CC(C)C)NC(=O)CNC(=O)[C@H](CCC(=O)O)NC2=O` [CyA-[Nle6]JzTx-V(1-29)], the half-inhibitory concentration (IC50) on hNav1.7 [1] (setting [7]) turned out to be 0.31 nM. Also, on mNav1.7, the half-maximal inhibitory concentration (IC50) was found to be 0.957 nM and the mNav1.7/hNav1.7 was found to be 3.09.

As for `C#CC[C@@H]1NC(=O)[C@H](CC(=O)O)NC(=O)[C@@H]2CSSC[C@@H]3NC(=O)[C@H](CCCNC(=N)N)NC(=O)[C@H](CC(C)C)NC(=O)CNC(=O)[C@H](CCC(=O)O)NC(=O)[C@H](CSSC[C@H](NC(=O)[C@H](Cc4ccc(O)cc4)NC(=O)[C@@H](N)CC#N)C(=O)N[C@@H](CCC(N)=O)C(=O)N[C@@H](CCCCN)C(=O)N[C@@H](Cc4c[nH]c5ccccc45)C(=O)N[C@@H](CCCC)C(=O)N[C@@H](Cc4c[nH]c5ccccc45)C(=O)N[C@@H]([C@@H](C)O)C(=O)N2)NC(=O)[C@H](CSSC[C@@H](C(=O)N[C@@H](CCCNC(=N)N)C(=O)N[C@@H](CCCCN)C(=O)N[C@@H](CCC(=O)O)C(=O)N[C@H](C(N)=O)[C@@H](C)CC)NC(=O)[C@H](Cc2c[nH]c4ccccc24)NC(=O)[C@H](CC(C)C)NC(=O)[C@H](CCCCN)NC3=O)NC(=O)[C@H](C)NC(=O)[C@H](CCCNC(=N)N)NC(=O)[C@H](CCCCN)NC1=O` [CyA-[Nle6; Pra11; Glu28]JzTx-V(1-29)], on rNav1.7, the half-inhibitory concentration (IC50) came out at 2.24 nM and the rNav1.7/hNav1.7 is given as 11.58. Moreover, on mNav1.7, the IC50 came to 4.04 nM and the mNav1.7/hNav1.7 was determined as 20.87.

Take `CCCC[C@@H]1NC(=O)[C@H](Cc2c[nH]c3ccccc23)NC(=O)[C@H](CCCCN)NC(=O)[C@H](CCC(N)=O)NC(=O)[C@@H](NC(=O)[C@H](Cc2ccc(O)cc2)NC(=O)[C@@H](N)CC#N)CSSC[C@@H]2NC(=O)[C@@H]3CSSC[C@@H](C(=O)N[C@@H](CCCNC(=N)N)C(=O)N[C@@H](CCCCN)C(=O)N[C@@H](CCC(=O)O)C(=O)N[C@H](C(N)=O)[C@@H](C)CC)NC(=O)[C@H](Cc4c[nH]c5ccccc45)NC(=O)[C@H](CC(C)C)NC(=O)[C@H](CCCCN)NC(=O)[C@H](CSSC[C@H](NC(=O)[C@H]([C@@H](C)O)NC(=O)[C@H](Cc4c[nH]c5ccccc45)NC1=O)C(=O)N[C@@H](CC(=O)O)C(=O)N[C@@H](CO)C(=O)N[C@@H](CCCCN)C(=O)N[C@@H](CCCNC(=N)N)C(=O)N[C@@H](C)C(=O)N3)NC(=O)[C@H](CCCNC(=N)N)NC(=O)[C@H](CC(C)C)NC(=O)CNC(=O)[C@H](Cc1cn(CCCOCCOCCOCCOCCOCCOCCOCCOCCOCCOCCN)nn1)NC2=O`: on rNav1.7, the rNav1.7/hNav1.7 was found to be 0.46. In addition, the mNav1.7/hNav1.7 at mNav1.7 came to 2.23.

Take `CCCC[C@@H]1NC(=O)[C@H](Cc2c[nH]c3ccccc23)NC(=O)[C@H](CCCCN)NC(=O)[C@H](CCC(N)=O)NC(=O)[C@@H](NC(=O)[C@H](Cc2ccc(O)cc2)NC(=O)[C@H](N)CC(C)C)CSSC[C@@H]2NC(=O)[C@@H]3CSSC[C@@H](C(=O)N[C@@H](CCCNC(=N)N)C(=O)N[C@@H](CCCCN)C(=O)N[C@H](C(=O)N[C@H](C(N)=O)[C@@H](C)CC)[C@@H](C)CC)NC(=O)[C@H](Cc4c[nH]c5ccccc45)NC(=O)[C@H](CC(C)C)NC(=O)[C@H](CCCCN)NC(=O)[C@H](CSSC[C@H](NC(=O)[C@H]([C@@H](C)O)NC(=O)[C@H](Cc4c[nH]c5ccccc45)NC1=O)C(=O)N[C@@H](CC(=O)O)C(=O)N[C@@H](CO)C(=O)N[C@@H](CCCCN)C(=O)N[C@@H](CCCNC(=N)N)C(=O)N[C@@H](C)C(=O)N3)NC(=O)[C@H](CCCNC(=N)N)NC(=O)[C@H](CC(C)C)NC(=O)CNC(=O)[C@H](CCC(=O)O)NC2=O` [D-Leu-[Nle6]JzTx-V(1-29)]: the 50% inhibitory concentration (IC50) on hNav1.7 [1] (setting [7]) stood at 0.15 nM. In addition, at mNav1.7, the IC50 was 12.6 nM and the mNav1.7/hNav1.7 amounted to 84.00.

For `CCCC[C@@H]1NC(=O)[C@H](Cc2c[nH]c3ccccc23)NC(=O)[C@H](CCCCN)NC(=O)[C@H](CCC(N)=O)NC(=O)[C@@H](NC(=O)[C@H](Cc2ccc(O)cc2)NC(=O)[C@@H](N)Cc2cn(CCOCCOCCOCCOCCOCCOCCOCCOCCOCCOCCN)nn2)CSSC[C@@H]2NC(=O)[C@@H]3CSSC[C@@H](C(=O)N[C@@H](CCCNC(=N)N)C(=O)N[C@@H](CCCCN)C(=O)N[C@H](C(=O)N[C@H](C(N)=O)[C@@H](C)CC)[C@@H](C)CC)NC(=O)[C@H](Cc4c[nH]c5ccccc45)NC(=O)[C@H](CC(C)C)NC(=O)[C@H](CCCCN)NC(=O)[C@H](CSSC[C@H](NC(=O)[C@H]([C@@H](C)O)NC(=O)[C@H](Cc4c[nH]c5ccccc45)NC1=O)C(=O)N[C@@H](CC(=O)O)C(=O)N[C@@H](CO)C(=O)N[C@@H](CCCCN)C(=O)N[C@@H](CCCNC(=N)N)C(=O)N[C@@H](C)C(=O)N3)NC(=O)[C@H](CCCNC(=N)N)NC(=O)[C@H](CC(C)C)NC(=O)CNC(=O)[C@H](CCC(=O)O)NC2=O` [Atz(NPEG9)-[Nle6]JzTx-V(1-29)], the rNav1.7/hNav1.7 at rNav1.7 is listed as 0.22. Besides, the mNav1.7/hNav1.7 on mNav1.7 was found to be 1.65.

As to `CCCC[C@@H]1NC(=O)[C@H](Cc2c[nH]c3ccccc23)NC(=O)[C@H](CCCCN)NC(=O)[C@H](CCC(N)=O)NC(=O)[C@@H](NC(=O)[C@H](Cc2ccc(O)cc2)NC(=O)[C@@H](N)Cc2c[nH]c3ccccc23)CSSC[C@@H]2NC(=O)[C@@H]3CSSC[C@@H](C(=O)N[C@@H](CCCNC(=N)N)C(=O)N[C@@H](CCCCN)C(=O)N[C@H](C(=O)N[C@H](C(N)=O)[C@@H](C)CC)[C@@H](C)CC)NC(=O)[C@H](Cc4c[nH]c5ccccc45)NC(=O)[C@H](CC(C)C)NC(=O)[C@H](CCCCN)NC(=O)[C@H](CSSC[C@H](NC(=O)[C@H]([C@@H](C)O)NC(=O)[C@H](Cc4c[nH]c5ccccc45)NC1=O)C(=O)N[C@@H](CC(=O)O)C(=O)N[C@@H](CO)C(=O)N[C@@H](CCCCN)C(=O)N[C@@H](CCCNC(=N)N)C(=O)N[C@@H](C)C(=O)N3)NC(=O)[C@H](CCCNC(=N)N)NC(=O)[C@H](CC(C)C)NC(=O)CNC(=O)[C@H](CCC(=O)O)NC2=O` [Trp-[Nle6]JzTx-V(1-29)], the IC50 on hNav1.7 [1] (setting [7]) was 0.33 nM; at mNav1.7 it was 1.34 nM. Also, the mNav1.7/hNav1.7 at mNav1.7 worked out at 4.07.

For the molecule `CC[C@H](C)[C@H](NC(=O)[C@H](CCCCN)NC(=O)[C@H](CCCNC(=N)N)NC(=O)[C@@H]1CSSC[C@@H]2NC(=O)[C@H](C)NC(=O)[C@H](CCCNC(=N)N)NC(=O)[C@H](CCCCN)NC(=O)[C@H](CO)NC(=O)[C@H](CC(=O)O)NC(=O)[C@@H]3CSSC[C@H](NC(=O)[C@H](CCC(=O)O)NC(=O)[C@H](CC(C)C)NC(=O)CNC(=O)[C@H](CCC(=O)O)NC(=O)[C@H](CSSC[C@H](NC(=O)[C@@H](N)Cc4ccc(O)cc4)C(=O)N[C@@H](CCC(N)=O)C(=O)N[C@@H](CCCCN)C(=O)N[C@@H](Cc4c[nH]c5ccccc45)C(=O)N[C@@H](CCSC)C(=O)N[C@@H](Cc4c[nH]c5ccccc45)C(=O)N[C@@H]([C@@H](C)O)C(=O)N3)NC2=O)C(=O)N[C@@H](CCCCN)C(=O)N[C@@H](CC(C)C)C(=O)N[C@@H](Cc2c[nH]c3ccccc23)C(=O)N1)C(=O)N[C@@H](Cc1c[nH]c2ccccc12)C(N)=O` [[Glu20, Trp29]JzTx-V], at rNav1.7, the IC50 was 1.3 nM and the rNav1.7/hNav1.7 is recorded as 0.82. In addition, on mNav1.7, the IC50 was 5.08 nM and the mNav1.7/hNav1.7 stood at 3.20.

With `CCCC[C@@H]1NC(=O)[C@H](Cc2c[nH]c3ccccc23)NC(=O)[C@H](CCCCN)NC(=O)[C@H](CCC(N)=O)NC(=O)[C@@H](NC(=O)[C@H](Cc2ccc(O)cc2)NC(=O)[C@@H](N)Cc2cn(CCCOCCOCCOCCOCCOCCOCCOCCOCCOCCOCCN)nn2)CSSC[C@@H]2NC(=O)[C@@H]3CSSC[C@@H](C(=O)N[C@@H](CCCNC(=N)N)C(=O)N[C@@H](CCCCN)C(=O)N[C@H](C(=O)N[C@H](C(N)=O)[C@@H](C)CC)[C@@H](C)CC)NC(=O)[C@H](Cc4c[nH]c5ccccc45)NC(=O)[C@H](CC(C)C)NC(=O)[C@H](CCCCN)NC(=O)[C@H](CSSC[C@H](NC(=O)[C@H]([C@@H](C)O)NC(=O)[C@H](Cc4c[nH]c5ccccc45)NC1=O)C(=O)N[C@@H](CC(=O)O)C(=O)N[C@@H](CO)C(=O)N[C@@H](CCCCN)C(=O)N[C@@H](CCCNC(=N)N)C(=O)N[C@@H](C)C(=O)N3)NC(=O)[C@H](CCCNC(=N)N)NC(=O)[C@H](CC(C)C)NC(=O)CNC(=O)[C@H](CCC(=O)O)NC2=O` [compound 247], the Nav1.4/Nav1.7 was determined as 1 on hNav1.4 [2] (setting [8]) and 2 on hNav1.4 [5] (ratio of IonWorks Quattro IC50 values). In addition, the 50% inhibitory concentration (IC50) on hNav1.4 [2] (read-out: PX hNav1.4 Tonic IC50) was 8 nM; at hNav1.7 [1], 6 nM; at hNav1.5 [3], 4.3 µM; on hNav1.7 [4], 0.07 µM; at hNav1.4 [5] (IonWorks Quattro, read-out: IC50 (μM) Nav1.4) it was 0.15 µM; at hNav1.5 [6] (read-out: PX hNav1.5 Tonic IC50), 3770 nM. For the same molecule, at hNav1.3, the 50% inhibitory concentration (IC50) came to 0.13 µM. The Nav1.5/Nav1.7 at hNav1.5 [6] (setting [8]) was determined as 629.

For the origin of these results see US10344060B2 (priority 2013, dated 2019).
